Values of other authors in US20200354441A1, “TREATMENT OF DISORDERS” (Apellis Pharmaceuticals, Inc., priority 2017, published 2020).
pIC50: −log10 of the molar value.

Columns and labels:
[1] = system: complement activation (alternative pathway); conditions: alternative pathway-mediated erythrocyte lysis assay (WO2004/026328)
[2] = system: complement activation; conditions: relative to compstatin amidated at the C-terminus; published data (WO2004/026328, WO2007044668, Mallik 2005, Katragadda 2006)

Compound	pIC50 [1]	Activity over compstatin [2]
CC[C@H](C)[C@H](N)C(=O)N[C@H]1CSSC[C@@H](C(=O)N[C@H](C(N)=O)[C@@H](C)O)NC(=O)[C@H](CCCN=C(N)N)NC(=O)[C@H](Cc2cnc[nH]2)NC(=O)[C@H](Cc2cnc[nH]2)NC(=O)CNC(=O)[C@H](Cc2c[nH]c3ccccc23)NC(=O)[C@H](CC(=O)O)NC(=O)[C@H](CCC(N)=O)NC(=O)[C@H](C(C)C)NC(=O)[C@H](C(C)C)NC1=O [Compstatin, H-ICVVQDWGHHRCT-CONH2]	4.92	
Ac-ICVVQDWGHHRCT-CONH2 [Ac-compstatin]		3× more
Ac-ICVWQD(5fW)GAHRCT-CONH2 [Ac-V4W/W7(5fW)/H9A]		121× more
Ac-ICVWQDWGAHRCdT-COOH [Ac-V4W/H9A/T13dT -OH]		55× more
H-GICV(6fW)QD(6fW)GAHRCTN-COOH (6-fluoro-Trp, C-terminal acid) [+G/V4(6fW)/W7(6fW)H9A+N-OH]		126× more
